Measurements as given in US20250162973A1, “METHODS OF SYNTHESIS AND USES OF AGRIMOL COMPOUNDS” (Versitech Limited, priority 2022, published 2025).

Test system: NCI-H460 cells
Assay: Wound healing assay (cell migration)
Assay type: cell-based, human
Procedure: For wound healing assay in the present study, the cells were grown to approximately 80% confluence in 12-well plates in the complete growth medium and then a straight line was scraped at the central part of the each well by a 200 μL pipette tip. […] […] Each condition was performed in triplicate.

## CCCC(=O)c1c(O)c(Cc2c(O)c(Cc3c(O)c(C)c(OC)c(C(=O)CCC)c3O)c(O)c(C(=O)[C@@H](C)CC)c2O)c(O)c(C)c1OC [AGB, Agrimol B]
1 μM of AGB
  width of the scratch wound: significantly decreased
4 μM or 10 μM of AGB, 16 h and 32 h
  wound closure: wound closure was inhibited
Wound healing assay
  concentration giving significant reduction of cell migration: around 4 μM
